Consider eight compounds from publication PMC8213421 (CPT: Pharmacometrics & Systems Pharmacology, 2021).

One data set concerns CYP2B6 mRNA. In words: CYP induction in cultured human hepatocytes.
The next data set deals with CYP1A2 mRNA. In words: CYP induction in cultured human hepatocytes.
The conditions of data set [1]: cited from earlier work.
Data set [2] relates to CYP3A4. The settings on record: multiple doses of rifampicin 600 mg q.d.; cited from earlier work.
The nature of data set [3]: Venetoclax observed clinical PK. It is filed as in vivo. The following applies: human, plasma, oral.
The target in data set [4] is T1, OAT3 (Homo sapiens, UniProt Q8TCC7).
T1 sequence (Q8TCC7 1-542): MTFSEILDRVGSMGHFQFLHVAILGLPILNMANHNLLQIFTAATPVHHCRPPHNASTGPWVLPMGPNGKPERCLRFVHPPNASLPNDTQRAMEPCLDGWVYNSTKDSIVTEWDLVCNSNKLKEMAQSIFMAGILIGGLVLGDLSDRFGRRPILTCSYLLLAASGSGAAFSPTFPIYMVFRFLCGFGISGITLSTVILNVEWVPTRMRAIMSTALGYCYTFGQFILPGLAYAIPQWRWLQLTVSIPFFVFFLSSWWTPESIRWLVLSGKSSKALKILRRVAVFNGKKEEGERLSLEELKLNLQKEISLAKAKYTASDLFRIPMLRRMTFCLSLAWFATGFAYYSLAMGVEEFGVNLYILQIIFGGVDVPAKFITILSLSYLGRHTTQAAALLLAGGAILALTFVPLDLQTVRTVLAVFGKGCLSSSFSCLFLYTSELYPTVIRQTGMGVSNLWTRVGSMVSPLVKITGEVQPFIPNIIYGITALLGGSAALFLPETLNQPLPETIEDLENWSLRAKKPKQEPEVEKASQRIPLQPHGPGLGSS
The following applies: cited from earlier work.

For data set [5], the system named is OAT3. The settings on record: read-out: OAT3 Ki; lowest reported value; cited from earlier work.
A further data set relates to OATP1B1/1B3. The following applies: hepatic uptake, model; cited from earlier work.
A further data set has as its system NTCP. The settings on record: hepatic uptake, model; cited from earlier work.
For the next data set, the target named is T2, OCT2 (Homo sapiens, UniProt O15244).
T2 sequence (O15244 1-555): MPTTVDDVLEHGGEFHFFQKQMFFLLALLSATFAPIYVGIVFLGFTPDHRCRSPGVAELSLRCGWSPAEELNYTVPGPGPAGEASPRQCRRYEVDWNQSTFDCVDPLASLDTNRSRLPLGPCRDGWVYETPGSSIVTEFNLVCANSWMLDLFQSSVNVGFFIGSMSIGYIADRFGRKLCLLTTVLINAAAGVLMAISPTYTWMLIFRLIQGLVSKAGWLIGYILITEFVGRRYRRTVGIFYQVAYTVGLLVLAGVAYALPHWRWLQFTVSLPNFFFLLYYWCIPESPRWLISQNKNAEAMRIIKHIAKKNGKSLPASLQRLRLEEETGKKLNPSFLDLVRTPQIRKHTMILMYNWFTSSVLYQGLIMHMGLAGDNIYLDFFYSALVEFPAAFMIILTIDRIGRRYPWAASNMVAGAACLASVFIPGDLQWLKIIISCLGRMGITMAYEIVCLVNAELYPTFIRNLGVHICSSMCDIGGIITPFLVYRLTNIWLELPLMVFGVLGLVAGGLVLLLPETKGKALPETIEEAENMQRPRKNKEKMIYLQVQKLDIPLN
In words: Transporter inhibition in transfected HEK293 cells. It is filed as cell-based.

The subject of data set [6] is CYP3A4. The following applies: ivosidenib PBPK model; cited from earlier work.
Another data set has as its system CYP2C8 mRNA. In words: CYP induction in cultured human hepatocytes.
Data set [7] concerns CYP3A4 mRNA. The settings on record: human, hepatocytes.
The target in another data set is T3, OATP1B1 (Homo sapiens, UniProt Q9Y6L6).
T3 sequence (Q9Y6L6 1-691): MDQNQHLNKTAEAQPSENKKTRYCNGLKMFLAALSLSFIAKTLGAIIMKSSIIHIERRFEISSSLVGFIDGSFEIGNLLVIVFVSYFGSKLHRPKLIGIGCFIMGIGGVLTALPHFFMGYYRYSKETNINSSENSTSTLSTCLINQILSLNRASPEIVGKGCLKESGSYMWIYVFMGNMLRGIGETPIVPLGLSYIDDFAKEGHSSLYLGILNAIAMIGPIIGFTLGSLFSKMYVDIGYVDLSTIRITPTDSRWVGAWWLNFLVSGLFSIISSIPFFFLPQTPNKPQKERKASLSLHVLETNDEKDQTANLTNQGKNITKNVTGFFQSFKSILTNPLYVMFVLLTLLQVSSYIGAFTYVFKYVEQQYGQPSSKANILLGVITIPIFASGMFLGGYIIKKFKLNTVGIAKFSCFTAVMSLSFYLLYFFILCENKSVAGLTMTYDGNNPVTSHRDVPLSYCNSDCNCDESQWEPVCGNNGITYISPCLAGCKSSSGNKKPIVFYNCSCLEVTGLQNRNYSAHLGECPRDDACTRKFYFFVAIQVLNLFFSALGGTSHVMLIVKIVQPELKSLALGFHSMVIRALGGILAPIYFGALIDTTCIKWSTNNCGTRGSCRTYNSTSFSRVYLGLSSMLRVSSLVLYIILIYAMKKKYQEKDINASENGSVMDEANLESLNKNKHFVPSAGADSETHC
In words: Transporter inhibition in transfected HEK293 cells. The format is cell-based.

Data set [8] deals with CYP3A4. The settings on record: patients, cited from earlier work.
The next data set deals with CYP2C9 mRNA. In words: CYP induction in cultured human hepatocytes.
A further data set has as its target T4, OAT1 (Homo sapiens, UniProt Q4U2R8).
T4 sequence (Q4U2R8 1-563): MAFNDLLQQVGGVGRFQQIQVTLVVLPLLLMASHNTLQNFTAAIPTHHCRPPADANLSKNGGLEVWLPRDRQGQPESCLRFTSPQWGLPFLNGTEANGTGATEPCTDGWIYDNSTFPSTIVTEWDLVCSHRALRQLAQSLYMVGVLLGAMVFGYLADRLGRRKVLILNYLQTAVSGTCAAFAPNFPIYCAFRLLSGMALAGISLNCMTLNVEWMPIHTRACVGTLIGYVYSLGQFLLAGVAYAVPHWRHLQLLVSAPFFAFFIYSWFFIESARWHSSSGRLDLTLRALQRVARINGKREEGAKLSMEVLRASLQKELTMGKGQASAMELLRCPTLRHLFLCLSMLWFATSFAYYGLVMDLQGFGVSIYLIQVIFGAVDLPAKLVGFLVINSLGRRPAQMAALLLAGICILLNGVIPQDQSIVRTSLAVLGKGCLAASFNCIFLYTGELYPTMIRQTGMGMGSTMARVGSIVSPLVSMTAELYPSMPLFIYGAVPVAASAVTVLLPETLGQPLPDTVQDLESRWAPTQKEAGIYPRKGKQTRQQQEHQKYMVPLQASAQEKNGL
In words: Transporter inhibition in transfected HEK293 cells. The format is cell-based.

The subject of the next data set is CYP2C19 mRNA. In words: CYP induction in cultured human hepatocytes. The following applies: all three hepatocyte cultures.
A further data set addresses T5, OATP1B3 (Homo sapiens, UniProt Q9NPD5).
T5 sequence (Q9NPD5 1-702): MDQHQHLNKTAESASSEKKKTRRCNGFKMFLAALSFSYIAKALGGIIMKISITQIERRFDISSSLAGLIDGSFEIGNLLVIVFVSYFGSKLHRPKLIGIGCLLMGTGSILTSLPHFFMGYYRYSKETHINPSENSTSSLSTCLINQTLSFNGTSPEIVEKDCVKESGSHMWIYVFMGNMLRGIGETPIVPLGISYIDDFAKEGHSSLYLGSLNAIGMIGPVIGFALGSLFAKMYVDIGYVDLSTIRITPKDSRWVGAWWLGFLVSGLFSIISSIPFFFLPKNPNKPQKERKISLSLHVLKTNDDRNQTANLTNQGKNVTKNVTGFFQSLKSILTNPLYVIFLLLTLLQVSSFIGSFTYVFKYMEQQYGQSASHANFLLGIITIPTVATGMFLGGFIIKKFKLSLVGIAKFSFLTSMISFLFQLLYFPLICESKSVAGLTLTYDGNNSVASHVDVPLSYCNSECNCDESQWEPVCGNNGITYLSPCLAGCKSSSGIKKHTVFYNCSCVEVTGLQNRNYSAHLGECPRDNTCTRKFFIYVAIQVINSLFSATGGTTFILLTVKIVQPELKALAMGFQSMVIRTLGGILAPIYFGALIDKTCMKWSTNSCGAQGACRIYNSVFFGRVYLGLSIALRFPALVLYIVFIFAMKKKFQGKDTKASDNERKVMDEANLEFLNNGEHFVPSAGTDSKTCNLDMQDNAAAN
In words: Transporter inhibition in transfected HEK293 cells. The format is cell-based.

Data set [9] deals with CYP3A4. In words: PBPK. Further details: species or system human. The following applies: based on simulated midazolam results.
For data set [10], the target named is T1, OAT3. In words: Transporter inhibition in transfected HEK293 cells. The format is cell-based.
The next data set has as its target human P‐gp (Homo sapiens, UniProt P08183). In words: P-gp inhibition assay, bidirectional digoxin permeability in Caco-2 cells. The format is cell-based.
Data set [11] relates to CYP3A4 mRNA. In words: in vitro. The settings on record: human.
Data set [12] deals with CYP3A4. The following applies: human, in vivo, 600 mg, cited from earlier work.
Where [13] appears, read: human, cultured human hepatocytes.

Bounds are passed on as bounds.

Sequence of human P‐gp (P08183 whole entry): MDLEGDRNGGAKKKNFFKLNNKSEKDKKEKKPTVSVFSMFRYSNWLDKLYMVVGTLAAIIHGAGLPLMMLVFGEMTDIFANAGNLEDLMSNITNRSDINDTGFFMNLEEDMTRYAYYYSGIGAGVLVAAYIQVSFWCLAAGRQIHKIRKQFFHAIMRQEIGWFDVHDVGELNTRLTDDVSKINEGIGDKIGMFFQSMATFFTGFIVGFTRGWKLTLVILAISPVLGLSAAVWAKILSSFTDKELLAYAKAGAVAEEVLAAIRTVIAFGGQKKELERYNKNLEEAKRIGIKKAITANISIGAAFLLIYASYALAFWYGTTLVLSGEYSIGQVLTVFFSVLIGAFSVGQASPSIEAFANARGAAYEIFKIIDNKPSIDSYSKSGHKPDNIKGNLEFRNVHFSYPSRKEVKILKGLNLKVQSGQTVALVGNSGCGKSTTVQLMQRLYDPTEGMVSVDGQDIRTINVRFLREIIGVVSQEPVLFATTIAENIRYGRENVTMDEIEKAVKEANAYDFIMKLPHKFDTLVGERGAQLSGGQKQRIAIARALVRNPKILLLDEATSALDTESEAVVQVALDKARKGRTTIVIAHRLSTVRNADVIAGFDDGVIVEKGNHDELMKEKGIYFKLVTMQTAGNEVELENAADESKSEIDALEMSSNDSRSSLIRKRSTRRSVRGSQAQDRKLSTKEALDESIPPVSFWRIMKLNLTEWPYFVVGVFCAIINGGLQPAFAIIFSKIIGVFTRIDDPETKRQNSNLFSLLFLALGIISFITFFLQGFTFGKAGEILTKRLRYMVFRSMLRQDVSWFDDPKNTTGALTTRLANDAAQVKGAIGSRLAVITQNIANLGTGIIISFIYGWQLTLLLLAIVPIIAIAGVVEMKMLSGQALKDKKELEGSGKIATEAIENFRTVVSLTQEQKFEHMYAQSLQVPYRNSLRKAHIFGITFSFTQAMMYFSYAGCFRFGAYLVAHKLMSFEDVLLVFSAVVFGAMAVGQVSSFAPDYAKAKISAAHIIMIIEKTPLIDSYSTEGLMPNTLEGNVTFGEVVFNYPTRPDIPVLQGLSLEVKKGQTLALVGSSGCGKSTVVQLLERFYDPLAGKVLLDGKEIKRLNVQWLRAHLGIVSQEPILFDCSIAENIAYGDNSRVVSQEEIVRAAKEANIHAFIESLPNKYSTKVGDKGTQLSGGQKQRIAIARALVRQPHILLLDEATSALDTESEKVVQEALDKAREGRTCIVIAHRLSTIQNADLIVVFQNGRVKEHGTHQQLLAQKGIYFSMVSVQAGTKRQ

With `CCC1(c2ccccc2)C(=O)NC(=O)NC1=O` [phenobarbital, reference compound], in the data set on CYP2B6 mRNA (prototypical inducer (positive control), human hepatocytes), the “increase in CYP2B6 mRNA levels” value is reported as 13 ± 4.7 fold.

Consider `COc1ccc2[nH]c([S+]([O-])Cc3ncc(C)c(OC)c3C)nc2c1` (stereo not drawn) [omeprazole, reference compound], for which, in the data set on CYP1A2 mRNA (prototypical inducer (positive control)), the “increase in CYP1A2 mRNA levels” value came out at 104 ± 97 fold.

As for `CC1(C)CCC(CN2CCN(c3ccc(C(=O)NS(=O)(=O)c4ccc(NCC5CCOCC5)c([N+](=O)[O-])c4)c(Oc4cnc5[nH]ccc5c4)c3)CC2)=C(c2ccc(Cl)cc2)C1` [Venetoclax], the “estimated mean Vss/F from clinical data” value in [1] (patients) was 3.67 L/kg. Further, in data set [1] (venetoclax), the “observed mean CL/F” value is reported as 14.9 L/h. For the same compound, in the data set with CYP3A4 [2], the “decrease of venetoclax AUC” value was approximately 80% and the “decrease of venetoclax Cmax” value is ~ 70%. In addition, in data set [3], the Vd was in the range of 0.36 to 1.78 L/kg.

As for `CN(Cc1cnc2nc(N)nc(N)c2n1)c1ccc(C(=O)N[C@@H](CCC(=O)O)C(=O)O)cc1` [Methotrexate], at OAT3 [4], the “reported methotrexate AUCR with probenecid” value is reported as 1.57 fold.

Take `CCCN(CCC)S(=O)(=O)c1ccc(C(=O)O)cc1` [probenecid]: the Ki in the data set with OAT3 [5] was […].

On to `CC(C)c1nc(N(C)S(C)(=O)=O)nc(-c2ccc(F)cc2)c1/C=C/[C@@H](O)C[C@@H](O)CC(=O)O` [Rosuvastatin], for which the “relative contribution of OATP1B1/1B3 to uptake of rosuvastatin” value in the data set on OATP1B1/1B3 was 65%. For the same compound, in the data set on NTCP, the “relative contribution of NTCP to uptake of rosuvastatin” value is recorded as 35%.

Consider `N#Cc1ccnc(N2C(=O)CC[C@H]2C(=O)N(c2cncc(F)c2)[C@H](C(=O)NC2CC(F)(F)C2)c2ccccc2Cl)c1` [Ivosidenib], for which the half-maximal inhibitory concentration (IC50) was more than 65 µM at OCT2; 9.56 µM on OATP1B1; more than 65 µM against OAT1; 22.8 µM at OATP1B3; 0.322 µM on OAT3 [10]; 19.6 µM against human P‐gp. In the data set on CYP2B6 mRNA (human hepatocytes, 3 donors), the “CYP2B6 mRNA mean Emax” value came out at 2.85 ± 1.53. The EC50 at 72 h came out at 2.93 ± 0.65 µM in the data set with CYP2B6 mRNA (setting [13]), 8.1 ± 3.3 µM in the data set on CYP2C8 mRNA (setting [13]) and 3.23 ± 1.04 µM with CYP2C9 mRNA (setting [13]). For the same compound, in the data set on CYP3A4 [6], the “fm (fraction metabolized, CYP3A4)” value is 0.865. In the data set with CYP2C8 mRNA (human hepatocytes, 3 donors), the “CYP2C8 mRNA mean Emax” value stood at 3.79 ± 1.28. Moreover, the “CYP3A4 mRNA mean Emax” value in the data set on CYP3A4 mRNA [7] stood at 78.2 ± 113. In the data set with CYP3A4 [8] (500 mg ivosidenib), the “increase of mean 4β‐OHC levels” value is given as ~ 199%. Also, the “increase of 4β‐OHC” value with CYP3A4 [8] (after 28 days of 100 mg b.i.d. and 100–1200 mg q.d. ivosidenib) is listed as “up to 371%”. The “CYP2C9 mRNA mean Emax” value in the data set with CYP2C9 mRNA (human hepatocytes, 3 donors) was determined as 3.39 ± 0.63. Moreover, the “CYP1A2 mRNA induction” value in the data set on CYP1A2 mRNA (3 donors, 0.05-90 μM once daily 3 days) is “no significant induction”. Further, the “effect on CYP2C19 mRNA levels” value in the data set with CYP2C19 mRNA is given as “inconclusive”. Moreover, the “classification as CYP3A4 inducer as per regulatory guidance” value in the data set on CYP3A4 [9] was “strong inducer”. Moreover, in the data set on CYP3A4 mRNA [11], the EC50 turned out to be 12.5 ± 9.2 µM.

For the compound `Cc1ncc2n1-c1ccc(Cl)cc1C(c1ccccc1F)=NC2` [Midazolam], the “reduction of midazolam AUC, i.v.” value with CYP3A4 [12] (iv) is given as 51%. The “reduction of midazolam AUC, oral” value in the data set with CYP3A4 [12] (po) is given as 92%.
